What was measured:
[1] = test system: human platelet rich plasma; experiment: Inhibition of human platelet aggregation, "Born"-method using single cuvettes; type: cell-based; settings: 0.1 h, ADP-induced aggregation, 6 minutes
Procedure: Inhibition of Human Platelet Aggregation
Alternatively to a binding assay which measures a compound's ability to bind to the P2Y12 receptor, the effect on cellular function was also determined. This ability of the compound was evaluated in two platelet aggregation assays: in 96-well plates and with the “Born”-method using single cuvettes.
Whole blood was collected from healthy volunteers using 20 ml syringes containing 2 ml of buffered Citrate. The anticoagulated whole blood was transferred into 15 ml polypropylene conical tubes (10 ml per tube). The tubes were centrifuged for 15 minutes at 340×g at RT without using the centrifuge brake. This procedure leads to a pellet of cellular components and a supernatant of platelet rich plasma (PRP). The PRP layer was collected from each tube and pooled for each donor. To avoid carry over of cellular components following centrifugation, approximately 5 ml of PRP was left in the tube. The platelet concentration was determined using a Coulter Counter.
The 15 ml tubes containing the pellet of cellular components were centrifuged again for 10 minutes at 1940×g. This pelleted out most particulate blood constituents remaining, leaving a layer of Platelet Poor Plasma (PPP). The PPP was collected for each donor. The PRP layer, previously set aside, was diluted with PPP to a final concentration of approximately 3×E8 platelets/ml with the PPP.
The human platelet aggregation assay is performed in single use cuvettes using the platelet aggregation profiler (PAP-4 or -8, Bio/Data corporation).
In the assay cuvette 4 μl of test compound at 100× final concentration in DMSO is mixed with 392 μl fresh PRP and incubated for 2 minutes at 37° C. with 1.200 rpm stirring. Following that incubation period, 4 μl of 250 μM ADP is added to the reaction mix. This addition of ADP is sufficient to induce aggregation in the absence of an inhibitor. After that aggregation is measured over 6 minutes at 37° C. with 1.200 rpm stirring. Results of the assay are expressed as % inhibition, and are calculated using maximum aggregation (Tmax) or area under curve (AUC) of the absorbance over 6 minutes.
The IC50 data of the above described platelet aggregation assay using human platelet rich plasma for exemplary compounds of the present invention are shown in table 3.

[2] = test system: human platelet rich plasma; experiment: Inhibition of human platelet aggregation, 96-well assay; type: cell-based; settings: Homo sapiens, Platelet, 20 min
Method in brief: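 ADP-induced aggregation read as 650 nm absorbance every minute for 20 min at 37 °C, with shaking between reads. PRP (~3×E8 platelets/ml, diluted with PPP, ACD-A blood from healthy volunteers) was exposed to compound for 5 min before adding a 40 μM ADP stock (15 μl into 150 μl).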

human P2Y12 receptor = human P2Y12 receptor (Homo sapiens, UniProt Q9H244); experiment: Human P2Y12 recombinant cell membrane binding assay with 33P 2MeS-ADP; settings: competition against 33P 2MeS-ADP, membranes of CHO cells with recombinant human P2Y12 receptor
human P2Y12 receptor, sequence (Q9H244 whole entry): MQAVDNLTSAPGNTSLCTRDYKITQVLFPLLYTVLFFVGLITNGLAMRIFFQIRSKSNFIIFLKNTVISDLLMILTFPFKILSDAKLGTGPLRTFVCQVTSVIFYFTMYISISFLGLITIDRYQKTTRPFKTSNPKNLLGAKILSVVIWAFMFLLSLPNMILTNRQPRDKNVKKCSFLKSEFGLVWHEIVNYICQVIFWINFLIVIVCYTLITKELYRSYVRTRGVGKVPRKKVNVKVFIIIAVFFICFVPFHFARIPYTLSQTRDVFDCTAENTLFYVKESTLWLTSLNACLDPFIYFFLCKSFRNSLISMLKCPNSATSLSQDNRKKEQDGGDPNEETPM
Method in brief: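 CHO membranes expressing human P2Y12 (20 μg/ml stock) preincubated 15 min at RT with compound in HEPES pH 7.4 buffer, then 33P 2MeS-ADP (1.61 nM working solution) added for 20 min at RT. Bound label filtered and counted; four-point, five-fold series from 10 μM final, triplicate, four-parameter fit.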

SMILES	IC50 [1] [nM]	IC50 [2] [nM]	IC50 (human P2Y12 receptor) [nM]
CCOC(=O)N1CCN(C(=O)[C@H](C)NC(=O)c2cc(OCC(=O)N3CCC[C@H]3C(=O)NC3CCC3)n(-c3ccccc3)n2)CC1 [Example 185, 4-[(S)-2-({5-[2-((S)-2-Cyclobutylcarbamoyl-pyrrolidin-1-yl)-2-oxo-ethoxy]-1-phenyl-1H-pyrazole-3-carbonyl}-amino)-propionyl]-piperazine-1-carboxylic acid ethyl ester]	90		
CCCCOC(=O)N1CCN(C(=O)[C@H](CCC(=O)O)NC(=O)c2cc(OCC(=O)N3CCC[C@H]3C(=O)NC3CCC3)n(-c3ccccc3)n2)CC1 [Example 119, 4-[(S)-4-Carboxy-2-({5-[2-((S)-2-cyclobutylcarbamoyl-pyrrolidin-1-yl)-2-oxo-ethoxy]-1-phenyl-1H-pyrazole-3-carbonyl}-amino)-butyryl]-piperazine-1-carboxylic acid butyl ester]	13	20	
CCOC(=O)N1CCN(C(=O)[C@H](CC(O)CO)NC(=O)c2cc(OCC(=O)N3CCC[C@H]3C(=O)NC3CCC3)n(-c3ccccc3)n2)CC1 (stereo partly drawn) [Example 117, 4-[(S)-2-({5-[2-((S)-2-Cyclobutylcarbamoyl-pyrrolidin-1-yl)-2-oxo-ethoxy]-1-phenyl-1H-pyrazole-3-carbonyl}-amino)-4,5-dihydroxy-pentanoyl]-piperazine-1-carboxylic acid ethyl ester]	220		
CCOC(=O)N1CCN(C(=O)[C@H](CCC(=O)O)NC(=O)c2cc(OCC(=O)N3CCC[C@H]3C(=O)NCC3CC3)n(-c3ccccc3)n2)CC1 [Example 16, 4-{(S)-4-Carboxy-2-[(5-{2-[(S)-2-(cyclopropylmethyl-carbamoyl)-pyrrolidin-1-yl]-2-oxo-ethoxy}-1-phenyl-1H-pyrazole-3-carbonyl)-amino]-butyryl}-piperazine-1-carboxylic acid ethyl ester]	46		
CCOCCOC(=O)CC[C@H](NC(=O)c1cc(OCC(=O)N2CCC[C@H]2C(=O)NC2CCC2)n(-c2ccccc2)n1)C(=O)N1CCN(C(=O)OCC)CC1 [Example 198, 4-[(S)-2-({5-[2-((S)-2-Cyclobutylcarbamoyl-pyrrolidin-1-yl)-2-oxo-ethoxy]-1-phenyl-1H-pyrazole-3-carbonyl}-amino)-4-(2-ethoxy-ethoxycarbonyl)-butyryl]-piperazine-1-carboxylic acid ethyl ester]		720	116
O=C(NCC(=O)N1CCN(C(=O)OC2CCCC2)CC1)c1cc(OCC(=O)N2CCC[C@H]2C(=O)NC2CCC2)n(-c2ccccc2)n1 [Example 268, 4-[2-({5-[2-((S)-2-Cyclobutylcarbamoyl-pyrrolidin-1-yl)-2-oxo-ethoxy]-1-phenyl-1H-pyrazole-3-carbonyl}-amino)-acetyl]-piperazine-1-carboxylic acid cyclopentyl ester]		20	99
CCCCOC(=O)N1CCN(C(=O)[C@H](CCCOC(C)=O)NC(=O)c2cc(OCC(=O)N3CCC[C@H]3C(=O)NC3CCC3)n(-c3ccccc3)n2)CC1 [Example 211, 4-[(S)-5-Acetoxy-2-({5-[2-((S)-2-cyclobutylcarbamoyl-pyrrolidin-1-yl)-2-oxo-ethoxy]-1-phenyl-1H-pyrazole-3-carbonyl}-amino)-pentanoyl]-piperazine-1-carboxylic acid butyl ester]		280	20
CCOC(=O)N1CCN(C(=O)[C@H](CCC(=O)OCC2CCCO2)NC(=O)c2cc(OCC(=O)N3CCC[C@H]3C(=O)NC3CCC3)n(-c3ccccc3)n2)CC1 (stereo partly drawn) [Example 199, 4-[(S)-2-({5-[2-((S)-2-Cyclobutylcarbamoyl-pyrrolidin-1-yl)-2-oxo-ethoxy]-1-phenyl-1H-pyrazole-3-carbonyl}-amino)-4-(tetrahydro-furan-2-ylmethoxycarbonyl)-butyryl]-piperazine-1-carboxylic acid ethyl ester]		920	139
CCOC(=O)N1CCN(C(=O)[C@H](CCC(=O)OC)NC(=O)c2cc(OCC(=O)N3CCC[C@H]3C(=O)NC3CCC3)n(-c3ccccc3)n2)CC1 [Example 136, 4-[(S)-2-({5-[2-((S)-2-Cyclobutylcarbamoyl-pyrrolidin-1-yl)-2-oxo-ethoxy]-1-phenyl-1H-pyrazole-3-carbonyl}-amino)-4-methoxycarbonyl-butyryl]-piperazine-1-carboxylic acid ethyl ester]		260	39
CCOC(=O)N1CCN(C(=O)[C@H](CCC(=O)O)NC(=O)c2cc(OCC(=O)N3CCC[C@H]3C(=O)N3CCCCC3)n(-c3ccccc3)n2)CC1 [Example 18, 4-{(S)-4-Carboxy-2-[(5-{2-oxo-2-[(S)-2-(piperidine-1-carbonyl)-pyrrolidin-1-yl]-ethoxy}-1-phenyl-1H-pyrazole-3-carbonyl)-amino]-butyryl}-piperazine-1-carboxylic acid ethyl ester]		70	146
O=C(NCC(=O)N1CCN(C(=O)OC2CCC2)CC1)c1cc(OCC(=O)N2CCC[C@H]2C(=O)NC2CCC2)n(-c2ccccc2)n1 [Example 192, 4-[2-({5-[2-((S)-2-Cyclobutylcarbamoyl-pyrrolidin-1-yl)-2-oxo-ethoxy]-1-phenyl-1H-pyrazole-3-carbonyl}-amino)-acetyl]-piperazine-1-carboxylic acid cyclobutyl ester]		190	131
CCOC(=O)N1CCN(C(=O)[C@H](CCC(=O)O)NC(=O)c2cc(OCC(=O)N3CCC[C@H]3C(=O)NCC3CC3)n(-c3cccc(F)c3)n2)CC1 [Example 74, 4-((S)-4-Carboxy-2-{[5-[2-((S)-2-cyclopropylmethylcarbamoyl-pyrrolidin-1-yl)-2-oxo-ethoxy]-1-(3-fluoro-phenyl)-1H-pyrazole-3-carbonyl]-amino}-butyryl)-piperazine-1-carboxylic acid ethyl ester]		260	182
CCOC(=O)N1CCN(C(=O)[C@H](CCC(=O)O)NC(=O)c2cc(OCC(=O)N3CC[C@H]3C(=O)NC3CCC3)n(-c3ccccc3)n2)CC1 [Example 41, 4-[(S)-4-Carboxy-2-({5-[2-((S)-2-cyclobutylcarbamoyl-azetidin-1-yl)-2-oxo-ethoxy]-1-phenyl-1H-pyrazole-3-carbonyl}-amino)-butyryl]-piperazine-1-carboxylic acid ethyl ester]		80	109
CCOC(=O)N1CCN(C(=O)[C@H](CCC(=O)O)NC(=O)c2cc(OCC(=O)N3CC(F)(F)C[C@H]3C(=O)NC3CCC3)n(-c3ccccc3)n2)CC1 [Example 164, 4-[(S)-4-Carboxy-2-({5-[2-((S)-2-cyclobutylcarbamoyl-4,4-difluoro-pyrrolidin-1-yl)-2-oxo-ethoxy]-1-phenyl-1H-pyrazole-3-carbonyl}-amino)-butyryl]-piperazine-1-carboxylic acid ethyl ester]		40	81
CCOC(=O)N1CCN(C(=O)[C@H](CC(=O)O)NC(=O)c2cc(OCC(=O)N3CCC[C@H]3C(=O)NCC(F)(F)F)n(-c3ccccc3)n2)CC1 [Example 58, 4-{(S)-3-Carboxy-2-[(5-{2-[(S)-2-(2,2,2-trifluoro-ethylcarbamoyl)-pyrrolidin-1-yl]-2-oxo-ethoxy}-1-phenyl-1H-pyrazole-3-carbonyl)-amino]-propionyl}-piperazine-1-carboxylic acid ethyl ester]		60	96
CCOC(=O)N1CCN(C(=O)[C@H](CCC(=O)OCC2CC2)NC(=O)c2cc(OCC(=O)N3CCC[C@H]3C(=O)NC3CCC3)n(-c3ccccc3)n2)CC1 [Example 128, 4-[(S)-2-({5-[2-((S)-2-Cyclobutylcarbamoyl-pyrrolidin-1-yl)-2-oxo-ethoxy]-1-phenyl-1H-pyrazole-3-carbonyl}-amino)-4-cyclopropylmethoxycarbonyl-butyryl]-piperazine-1-carboxylic acid ethyl ester]		690	43
CCOC(=O)N1CCN(C(=O)[C@H](CCC(=O)O)NC(=O)c2cc(OCC(=O)N3CCC[C@H]3C(=O)NC3CC3)n(-c3cccc(F)c3)n2)CC1 [Example 71, 4-((S)-4-Carboxy-2-{[5-[2-((S)-2-cyclopropylcarbamoyl-pyrrolidin-1-yl)-2-oxo-ethoxy]-1-(3-fluoro-phenyl)-1H-pyrazole-3-carbonyl]-amino}-butyryl)-piperazine-1-carboxylic acid ethyl ester]		710	192

From patent US8426420B2, “Heterocyclic pyrazole-carboxamidesas P2Y12 antagonists” (Sanofi, priority 2007, dated 2013)
